Patent US4758566A, “2-(1-piperazinyl)-4-substituted phenylquinoline derivatives, processes for the preparation thereof, and pharmaceutical composition containing the same” (Dainippon Pharmaceutical Co., Ltd., priority 1984, dated 1988)
Structures can show the parent of a compound that is named as a salt.

Legend:
[1] = system: ulceration induced by exposure to stress (restraint and water immersion) in rats; experiment: Effect on the ulceration induced by exposure to stress (restraint and water immersion) in rats, Test 2; format: in vivo, rat (male Wistar); details: for inhibition in vivo at 10 mg/kg / Ulcer index: stress-induced ulcer
Description: Effect on the ulceration induced by exposure to stress (restraint and water immersion) in rats The effect evaluated by this test is considered to be fairly well correlative to inhibitory effect on gastric acid secretion. Male Wistar rats weighing about 200 g were used in groups of 5 animals each. According to the method of Takagi et al. [cf. Japan. […] After 20 hours, the animals were taken out from the water bath and sacrificed under ether anesthesia, and the stomachs were removed. The stomach was inflated with 13 ml of physiological saline and placed in a 5% formalin solution for 5 minutes. After washing with physiological saline, the stomach was cut along the greater curvature and the length (mm) of each lesion in the glandular portion was measured using a dissecting microscope (×12). The sum of the length (mm) of each lesion in a stomach was indicated as an ulcer index. The inhibitory rate was determined by comparing the ulcer index in drug-treated groups with that in control group. Test compounds were administered orally 30 minutes before the immersion. In the control group, a vehicle (a 0.5% tragacanth solution) was administered orally.

[2] = system: ulceration induced by ethanol in rats; experiment: Effect on the ulceration induced by ethanol in rats (gastric cytoprotection activity), Test 1; format: in vivo, rat (male Wistar)
Description: Effect on the ulceration induced by ethanol in rats (gastric cytoprotection activity) This test was carried out according to the method of Robert [cf. […] Male Wistar rats weighing 190 g to 200 g were fasted for 24 hours and then given orally 1 ml of absolute ethanol. After 1 hour, the animals were sacrificed under ether anesthesia, and the stomachs were removed and cut along the greater curvature. The length (mm) of each lesion in the glandular portion was measured using a dissecting microscope (×12). The sum of the length (mm) of each lesion in a stomach was indicated as an ulcer index. The inhibitory rate was determined by comparing the ulcer index in drug-treated groups with that in control group. Test compounds were administered orally 30 minutes before the administration of ethanol. In the control group, a vehicle (a 0.5% tragacanth solution) was administered orally.

[3] = system: hypothermia induced by reserpine; experiment: Antireserpine activity (antagonistic effect on hypothermia induced by reserpine), Test 4; format: in vivo, mouse (male ddY); details: mouse
Description: Antireserpine activity (antagonistic effect on hypothermia induced by reserpine)
This test was carried out according to the method of Askew [cf. Life Sci., 2, 725 (1963)].
Male ddY mice weighing 22 g to 27 g were used in groups of 5 animals each. Test compounds were administered orally to the animals, and immediately 5 mg/kg of reserpine was injected intraperitoneally. Rectal temperature of each mouse was measured 4 hours later with a thermistor (Shibaura Electric, BMG III-130). The inhibitory rate was determined by comparing the fall of rectal temperature in drug-treated groups with that in control group. In the control group, a vehicle (a 0.5% tragacanth solution) was administered orally.

Male ddY mice = experiment: Acute toxicity, Test 5; format: in vivo, mouse (male ddY); details: 7 days; for Number of dead animals/number of used animals: mouse
Excerpt: Male ddY mice weighing 20 g to 25 g were used in groups of 10 animals each. Test compounds, dissolved or suspended in a 0.5% tragacanth solution, were orally administered at a prescribed dose to the animals.

[4] = system: ulceration induced by pylorus-ligation (Shay ulcer) in rats; experiment: Effect on the ulceration induced by pylorus-ligation (Shay ulcer) in rats, Test 3; format: in vivo, rat (male Wistar); details: rat; for Ulcer index: index of 0 to 5
Description: Effect on the ulceration induced by pylorus-ligation (Shay ulcer) in rats […] The portion between pylorus and duodenum of each rat was ligated under ether anesthesia according to the method of Shay et al. […] Each of the animals was then allowed to stand abstained from food and water in a cage. After 18 hours, the animals were sacrificed under ether anesthesia, and the stomachs were removed and cut along the greater curvature. […] 0: no lesion 1: hemorrhage or erosion […] The inhibitory rate was determined by comparing the ulcer index in drug-treated groups with that in the control group. […] Test compounds were administered orally 30 minutes before the ligation. In the control group, a vehicle (a 0.5% tragacanth solution) was administered orally.

[5] = U.S. Pat. No. 4,237,135; cited from earlier work
[6] = U.S. Pat. No. 4,237,135; cited from earlier work; remark: listed apart in the source
[7] = U.S. Pat. No. 4,237,135; cited from earlier work; remark: listed apart in the source
[8] = po, 20 h, rat, 10 mg/kg p.o., read-out: Inhibitory rate
[9] = ethanol-induced ulcer, rat, 10 mg/kg p.o.
[10] = po, 1 h, ethanol-induced ulcer, rat, 10 mg/kg p.o., read-out: Inhibitory rate

SMILES | inhibition in vivo at 10 mg/kg [1, 8] | Ulcer index ([1]; rat, 10 mg/kg p.o.) | Ulcer index [2, 9] | inhibition in vivo at 10 mg/kg [2, 10] | Inhibitory rate ([3]; 100 mg/kg p.o.) | also measured
FC(F)(F)c1cccc(-c2cc(N3CCNCC3)nc3ccccc23)c1.O=C(O)/C=C\C(=O)O.O=C(O)/C=C\C(=O)O [H, 2-(1-piperazinyl)-4-(3-trifluoromethylphenyl)quinoline dimaleate] | 4.3% | 24.7 ± 3.6 mm | 7.1 ± 1.9 mm | 84.3% |  | 
Cc1ccc(-c2cc(N3CCN(CCO)CC3)nc3ccccc23)cc1.O=C(O)/C=C\C(=O)O.O=C(O)/C=C\C(=O)O [E, 2-[4-(2-hydroxyethyl)-1-piperazinyl]-4-(4-methylphenyl)quinoline dimaleate] | 69.7% | 11.8 ± 4.6 mm | 12.0 ± 2.3 mm | 64.4% | 51.3% | 
O=C(O)/C=C\C(=O)O.O=C(O)/C=C\C(=O)O.OCCN1CCN(c2cc(-c3cccc(C(F)(F)F)c3)c3ccccc3n2)CC1 [J, 2-[4-(2-hydroxyethyl)-1-piperazinyl]-4-(3-trifluoromethylphenyl)quinoline dimaleate] | -2.7% | 34.8 ± 3.9 mm | 9.0 ± 4.2 mm | 74.8% |  | 
Cl.Cl.OCCN1CCN(c2cc(-c3ccc(F)cc3)c3ccccc3n2)CC1 [A, 2-[4-(2-hydroxyethyl)-1-piperazinyl]-4-(4-fluorophenyl)quinoline dihydrochloride] | 69.2% | 7.4 ± 3.6 mm | 9.8 ± 2.9 mm | 79.5% | 65.5% | death of mouse (in words) (Male ddY mice; 250 mg/kg p.o.): death of mouse was not observed; Number of dead animals/number of used animals (Male ddY mice; 250 mg/kg p.o.): 0/10; Number of dead animals/number of used animals (Male ddY mice; 500 mg/kg p.o.): 2/10; Number of dead animals/number of used animals (Male ddY mice; 1000 mg/kg p.o.): 5/10; Inhibitory rate ([3]; 50 mg/kg p.o.): 20.6%; Ulcer index ([2]; ethanol-induced ulcer, rat, 5 mg/kg p.o.): 31.6 ± 11.3 mm; Ulcer index ([2]; ethanol-induced ulcer, rat, 20 mg/kg p.o.): 9.2 ± 4.1 mm; inhibition in vivo at 5 mg/kg ([2]; po, 1 h, ethanol-induced ulcer, rat, 5 mg/kg p.o., read-out: Inhibitory rate): 33.9%; inhibition in vivo at 20 mg/kg ([2]; po, 1 h, ethanol-induced ulcer, rat, 20 mg/kg p.o., read-out: Inhibitory rate): 80.8%; Inhibitory rate ([4]; Shay ulcer, 10 mg/kg p.o.): 33.3%; Ulcer index ([4]; Shay ulcer, 10 mg/kg p.o.): 2.4 ± 0.4; Inhibitory rate ([4]; Shay ulcer, 20 mg/kg p.o.): 44.4%; Ulcer index ([4]; Shay ulcer, 20 mg/kg p.o.): 2 ± 0.8; Inhibitory rate ([4]; Shay ulcer, 50 mg/kg p.o.): 61.1%; Ulcer index ([4]; Shay ulcer, 50 mg/kg p.o.): 1.4 ± 0.2; Inhibitory rate ([4]; Shay ulcer, 100 mg/kg p.o.): 66.7%; Ulcer index ([4]; Shay ulcer, 100 mg/kg p.o.): 1.2 ± 0.2; ED50 ([4]; po, 18 h, Shay ulcer, graphic method, read-out: ED50 (dose required to inhibit ulcer index by 50%)): 26.5 mg/kg; potency relative to cimetidine in preventive effect on Shay ulcer ([4]; p.o., vs cimetidine): about 10 times
CCN1CCN(c2cc(-c3cccc(C(F)(F)F)c3)c3ccccc3n2)CC1.O=C(O)/C=C\C(=O)O.O=C(O)/C=C\C(=O)O [I, 2-(4-ethyl-1-piperazinyl)-4-(3-trifluoromethylphenyl)quinoline dimaleate] | 20.1% | 27.1 ± 2.2 mm | 16.5 ± 3.9 mm | 63.5% |  | 
O=C(O)/C=C\C(=O)O.O=C(O)/C=C\C(=O)O.OCCN1CCN(c2cc(-c3ccc(C(F)(F)F)cc3)c3ccccc3n2)CC1 [F, 2-[4-(2-hydroxyethyl)-1-piperazinyl]-4-(4-trifluoromethylphenyl)quinoline dimaleate] | 41.6% | 19.8 ± 2.0 mm | 6.7 ± 1.8 mm | 87.2% |  | 
CN(C)CCCN1c2ccccc2CCc2ccccc21 [Imipramine hydrochloride, reference compound] |  |  |  |  | 94.5% | Inhibitory rate ([3]; 10 mg/kg p.o.): 29.5%; Inhibitory rate ([3]; 30 mg/kg p.o.): 69.3%
O=C(O)/C=C\C(=O)O.O=C(O)/C=C\C(=O)O.OCCN1CCN(c2cc(-c3ccc(Cl)cc3)c3ccccc3n2)CC1 [G, 2-[4-(2-hydroxyethyl)-1-piperazinyl]-4-(4-chlorophenyl)quinoline dimaleate] | 36.4% | 18.5 ± 6.9 mm | 10.8 ± 6.3 mm | 76.1% |  | 
CN/C(=N/CCSCc1nc[nH]c1C)NC#N [Cimetidine, reference compound] |  |  |  |  |  | inhibition in vivo at 20 mg/kg ([1]; Rattus norvegicus, po, 20 h, read-out: Inhibitory rate): 39.1%; preventive effect on the stress-induced ulceration (in words) ([1]; rat, 20 mg/kg p.o.): did not exhibit any significant effect; Ulcer index ([1]; rat, 20 mg/kg p.o.): 15.1 ± 2.9 mm; inhibition in vivo at 100 mg/kg ([2]; Rattus norvegicus, po, 1 h, read-out: Inhibitory rate): 25.1%; Ulcer index ([2]; ethanol-induced ulcer, rat, 100 mg/kg p.o.): 23.9 ± 8.2 mm; protective effect on the ethanol-induced ulceration (in words) ([2]; rat, 100 mg/kg p.o.): did not exhibit any significant protective effect; Inhibitory rate ([4]; Shay ulcer, 50 mg/kg p.o.): 0%; Ulcer index ([4]; Shay ulcer, 50 mg/kg p.o.): 3.3 ± 0.3; Inhibitory rate ([4]; Shay ulcer, 100 mg/kg p.o.): 9.1%; Ulcer index ([4]; Shay ulcer, 100 mg/kg p.o.): 3 ± 0.5; Inhibitory rate ([4]; Shay ulcer, 200 mg/kg p.o.): 42.4%; Ulcer index ([4]; Shay ulcer, 200 mg/kg p.o.): 1.9 ± 0.4; Inhibitory rate ([4]; Shay ulcer, 500 mg/kg p.o.): 75.8%; Ulcer index ([4]; Shay ulcer, 500 mg/kg p.o.): 0.8 ± 0.2
Clc1ccc(-c2cc(N3CCNCC3)nc3ccccc23)cc1.O=C(O)/C=C\C(=O)O [C, 2-(1-piperazinyl)-4-(4-chlorophenyl)quinoline maleate] | 65.6% | 8.5 ± 2.9 mm | 4.5 ± 3.7 mm | 87.4% | 64.3% | 
CCN1CCN(c2cc(-c3ccc(Cl)cc3)c3ccccc3n2)CC1.O=C(O)/C=C\C(=O)O.O=C(O)/C=C\C(=O)O [D, 2-(4-ethyl-1-piperazinyl)-4-(4-chlorophenyl)quinoline dimaleate] | 54% | 13.4 ± 2.1 mm | 8.6 ± 4.5 mm | 89% | 45.2% | 
CCN1CCN(c2cc(-c3ccccc3)c3ccccc3n2)CC1 [2-(4-ethyl-1-piperazinyl)-4-phenylquinoline] |  |  |  |  |  | antitremorine activity [5]: have also antitremorine activity; inhibitory effect on spontaneous locomotor activity [6]: inhibitory effect on spontaneous locomotor activity; antireserpine activity [7]: have an antireserpine activity
O=C(O)/C=C\C(=O)O.O=C(O)/C=C\C(=O)O.OCCCN1CCN(c2cc(-c3ccc(F)cc3)c3ccccc3n2)CC1 [B, 2-[4-(3-hydroxypropyl)-1-piperazinyl]-4-(4-fluorophenyl)quinoline dimaleate] | 61.7% | 7.4 ± 1.2 mm | 21.9 ± 12.1 mm | 69.2% | 59.4% | 
